According to patent US20150225794A1, “METHOD OF PREDICTING A PREDISPOSITION TO QT PROLONGATION” (Vanda Pharmaceuticals, Inc., priority 2009, published 2015):

Key:
QT interval [1] = assay: ABCC2 SNP genotypes and QT prolongation following administration of iloperidone; type: in vivo, human; conditions: QTcF
Description: (§1) Since the QT interval changes with changes in heart rate, the QT interval is often measured as a corrected QT (QTc) interval. Any number of formulas may be employed to calculate the QTc, including, for example, the Fridericia formula (QTcF), the Bazett formula (QTcB), and the Rautaharju formula (QTp), among others. In the studies described herein, QT was calculated using the Fridericia formula. However, the present invention includes the use of any such formula or method for calculating a QTc or an uncorrected QT.

QT interval [2] = assay: QT prolongation and rs7067971 genotype in individuals given oral iloperidone for two weeks; type: in vivo, human; conditions: for High QT, + test (number of individuals) / Low QT, + test (number of individuals): rs7067971 GG; for High QT, + test (number of individuals) / Low QT, + test (number of individuals) / High QT, − test (number of individuals) / Low QT, − test (number of individuals): 24 mg/day B.I.D. oral, two weeks; for High QT, − test (number of individuals) / Low QT, − test (number of individuals): rs7067971 non-GG; for Odds Ratio: rs7067971 GG test
Description: as §1, with “QT. Using the genotypes at the SNP loci above, it is possible, with a high degree of certainty, to predict an individual's predisposition to QT prolongation.” for “QT.”

## COc1cc(C(C)=O)ccc1OCCCN1CCC(c2noc3cc(F)ccc23)CC1 [iloperidone]
QT interval [1]; SNP_A-2004488, rs2256678, allele A C, allele B T
  Lowest QTc change (genotype): non-BB
QT interval [1]; SNP_A-2068049, rs7067971, allele A A, allele B G
  Lowest QTc change (genotype): non-BB
QT interval [1]; SNP_A-2253129, rs4919395, allele A C, allele B T
  Lowest QTc change (genotype): non-BB
QT interval [1]; SNP_A-2262953, rs2804398, allele A A, allele B T
  Lowest QTc change (genotype): non-BB
QT interval [1]; SNP_A-4268713, rs2256700, allele A A, allele B G
  Lowest QTc change (genotype): non-BB
QT interval [2]; change threshold QT > 5 msec
  High QT, + test (number of individuals): 13
  Low QT, + test (number of individuals): 0
  High QT, − test (number of individuals): 101
  Low QT, − test (number of individuals): 64
QT interval [2]; change threshold QT > 15 msec
  Odds Ratio: 9.38
  High QT, + test (number of individuals): 11
  Low QT, + test (number of individuals): 2
  High QT, − test (number of individuals): 61
  Low QT, − test (number of individuals): 104
QT interval [2]; change threshold QT > 30 msec
  Odds Ratio: 5.88
  High QT, + test (number of individuals): 6
  Low QT, + test (number of individuals): 7
  High QT, − test (number of individuals): 21
  Low QT, − test (number of individuals): 144
